According to patent publication US20210353579A1, “HIGH PENETRATION COMPOSITIONS AND USES THEREOF” (Techfields Pharma Co., Ltd., priority 2006, published 2021):
Read-outs that look alike come from different tables or passages of the source.

Tests used:
[1] = Plasma levels after transdermal administration to hairless mice; format: in vivo; settings: for t, time to peak plasma level after parent compound: parent compound administered (time when taken orally); for Peak plasma concentration after parent compound: parent compound administered; for Peak plasma concentration after parent compound / Peak plasma concentration of parent compound after prodrug compound / t, time to peak plasma level of parent compound after prodrug compound: hairless mice; for Peak plasma concentration of parent compound after prodrug compound / t, time to peak plasma level of parent compound after prodrug compound: transdermal, 20% in 1 mL isopropanol
Experimental: Tested compounds (20% solution or suspension in 1 mL isopropanol) are administered transdermally to the skin of intact hairless mice. The plasma levels of the parent compounds are determined by HPLC.

mice = experiment: Analgesic activity, acetic acid writhing; format: in vivo
Experimental: The prodrug compounds are administered either transdermally or orally. The parent compounds are administered orally. The number of writhing that occurred when mice are administered the acetic acid solution are counted, and the rate of inhibition based on the control group which was not pretreated with any test compounds is calculated. […] The A group is the control group.

rats = experiment: Antipyretic activity, E. coli suspension as pyrogen; format: in vivo; settings: in °C (unit assumed)
Experimental: Rats are administered with sterilized E. coli suspension as a pyrogen. Each group of rats are administered with a prodrug compounds or parent compounds at a dosage specified below. The prodrug compounds are administered either orally or transdermally. The parent compounds are administered orally.

human skin tissue = experiment: In vitro penetration rate through human skin, modified Franz cells; settings: Franz cell; for In vitro penetration rate (apparent flux), parent compounds: 20% suspension in 0.2 M phosphate buffer pH 7.4, human skin, detection limit 1; for In vitro penetration rate (apparent flux), prodrug compounds: 20% solution in 0.2 M phosphate buffer pH 7.4, human skin
in vivo = settings: rat
Experimental: The acute toxicity of the prodrug compounds and parent compounds are measured by LD50 of rat.

[2] = Solubility in water / aqueous solubility of HPPs and parent drugs; settings: for Solubility in water: product as prepared in Example 1
[3] = system: Human breast cancer cells (BCAP-37); experiment: Human breast cancer xenograft in nude mice, topical
Experimental: Human breast cancer cells (BCAP-37, 2-3 mm^3 of tumor tissue was used in each mouse) are subcutaneously xenografted into the front leg of nude mice (BALB, 12 groups, 7 mice each group). […] Then 30 μl of 5% (equal to 1.5 mg of the HPPs) diethylaminoethyl acetylsalicylate.acetylsalicylic acid salt (P-1, in acetone); 1-piperidinepropyl 2[(2,6-dichlorophenyl)amino]benzene acetate.AcOH (P-2, in water), 1-pyrrolidinepropyl 2-(3-benzoylphenyl) propionate.AcOH (P-3, in water), 4-piperidinemethyl 2-(3-phenoxyphenyl)propionate.AcOH (P-4, in water), 3-piperidinemethyl 2-(ρ-isobutylphenyl) propionate.AcOH (P-5, in water), diethylaminoethyl 1-(p-chlorobenzoyl)-5-methoxy-2-methylindole 3-acetate.AcOH (P-11, in water), 2-(4-morpholinyl)ethyl (Z)-5-fluoro-2-methyl-1-[(4-methylsulfinyl) phenylmethylene]-1H-indene-3-acetate.AcOH (P-12, in water), diethylaminoethyl

Chinese white rabbits = experiment: Malassezia-induced lesions similar to psoriasis; format: in vivo, rabbit; settings: 5% aqueous solution twice per day, 10 days after application
From the text: Heavy suspensions of Malassezia [Rosenberg, E. W., et al., Mycopathologia, 72, 147-154 (1980)] were applied to the shaved skin on the backs of the Chinese white rabbits (n=4×6) twice (at 7 am and 7 pm) per day for 2 weeks, lesions similar to psoriasis resulted.

[4] = 100 mg/kg transdermally, 30 min before acetic acid
[5] = 100 mg/kg transdermally, 60 minutes before acetic acid
[6] = 10 mg/kg orally, 30 min before acetic acid
[7] = 10 mg/kg transdermally, 30 min before acetic acid
[8] = 20 mg/kg orally, 30 min before acetic acid
[9] = 20 mg/kg transdermally, 30 min before acetic acid
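For LD50 in this document: acute toxicity in rats expressed as LD50, determined for both prodrugs and their parent compounds.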
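For LD50 of HPP in this document: acute toxicity in rats expressed as LD50, determined for both prodrugs and their parent compounds.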

CC(C(=O)O)c1cccc(C(=O)c2ccccc2)c1 (stereo not shown) [Ketoprofen, 2-(3-benzoylphenyl) propionic acid, reference compound]
t, time to peak plasma level after parent compound [1]: 1 to 2 h | Peak plasma concentration after parent compound [1]: 1 mg/L | No. of Writhing (mice; 50 mg/kg orally, 30 min before acetic acid): 18.1 | inhibition at 50 mg/kg (mice; Mus musculus, po, 50 mg/kg orally, 30 min before acetic acid, read-out: % (rate of writhing inhibition)): 48% | body temperature, t = 0 min (rats; 50 mg/kg orally): 37.25 ± 0.06 | body temperature, t = 90 min (rats; 50 mg/kg orally): 36.81 ± 0.05 | body temperature, t = 180 min (rats; 50 mg/kg orally): 36.82 ± 0.08 | body temperature, t = 270 min (rats; 50 mg/kg orally): 36.78 ± 0.07 | In vitro penetration rate (apparent flux), parent compounds (human skin tissue): <1 μg/cm^2/h

CC1=C(CC(=O)O)c2cc(F)ccc2/C1=C\c1ccc([S+](C)[O-])cc1 (stereo not shown) [Sulindac, sulindac, reference compound]
t, time to peak plasma level after parent compound [1]: 1 to 2 h | Peak plasma concentration after parent compound [1]: 0.1 mg/L | In vitro penetration rate (apparent flux), parent compounds (human skin tissue): 10 μg/cm^2/h | LD50 (in vivo): 260 mg/kg

CC(=O)O.CCN(CC)CCOC(=O)Cc1c(C)n(C(=O)c2ccc(Cl)cc2)c2ccc(OC)cc12 [diethylaminoethyl 1-(p-chlorobenzoyl)-5-methoxy-2-methylindole 3-acetate.AcOH]
LD50 of HPP (rat; rats): 100 mg/kg | Peak plasma concentration of parent compound after prodrug compound [1]: 20 mg/L | t, time to peak plasma level of parent compound after prodrug compound [1]: 50 min | % (rate of writhing inhibition) (mice; [4]): 55% | No. of Writhing (mice; [4]): 15.6 | body temperature, t = 0 min (rats; 100 mg/kg transdermally): 37.35 ± 0.06 | body temperature, t = 90 min (rats; 100 mg/kg transdermally): 36.91 ± 0.05 | body temperature, t = 180 min (rats; 100 mg/kg transdermally): 36.85 ± 0.08 | body temperature, t = 270 min (rats; 100 mg/kg transdermally): 36.79 ± 0.07 | In vitro penetration rate (apparent flux), prodrug compounds (human skin tissue): 1100 μg/cm^2/h | Solubility of HPP ([2]; medium not given): >250 mg/mL | Tumor size ([3]; day 42, 30 μl of 5% (1.5 mg) topically every 8 hours from day 14, control 800 ± 100): 210 ± 100 mm^3 | Mouse weight ([3]; mouse, in vivo): 21 ± 2 g

CC(=O)O.CCN(CC)CCOC(=O)c1ccccc1Nc1cccc(C(F)(F)F)c1 [diethylaminoethyl 2-[[(3-(trifluoromethyl)phenyl)amino]benzoate.AcOH]
LD50 of HPP (rat; rats): 800 mg/kg | Peak plasma concentration of parent compound after prodrug compound [1]: 20 mg/L | t, time to peak plasma level of parent compound after prodrug compound [1]: 50 min | % (rate of writhing inhibition) (mice; [5]): 54% | No. of Writhing (mice; [5]): 16.1 | body temperature, t = 0 min (rats; 100 mg/kg transdermally): 37.27 ± 0.06 | body temperature, t = 90 min (rats; 100 mg/kg transdermally): 36.76 ± 0.05 | body temperature, t = 180 min (rats; 100 mg/kg transdermally): 36.65 ± 0.08 | body temperature, t = 270 min (rats; 100 mg/kg transdermally): 36.49 ± 0.07 | In vitro penetration rate (apparent flux), prodrug compounds (human skin tissue): 2200 μg/cm^2/h | Solubility of HPP ([2]; medium not given): >400 mg/mL

CC(=O)O.CCN(CC)CCOC(=O)Cc1ccccc1Nc1c(Cl)cccc1Cl [diethylaminoethyl 2[(2,6-dichlorophenyl)amino]benzene acetate.AcOH]
LD50 of HPP (rat; rat, in vivo): 800 mg/kg | Peak plasma concentration of parent compound after prodrug compound [1]: 2100 mg/L | t, time to peak plasma level of parent compound after prodrug compound [1]: 40 min | % (rate of writhing inhibition) (mice; [6]): 64.6% | No. of Writhing (mice; [6]): 12.1 | % (rate of writhing inhibition) (mice; [7]): 69.9% | No. of Writhing (mice; [7]): 10.3 | % (rate of writhing inhibition) (mice; [8]): 73.1% | No. of Writhing (mice; [8]): 9.2 | % (rate of writhing inhibition) (mice; [9]): 74.3% | No. of Writhing (mice; [9]): 8.8 | body temperature, t = 0 min (rats; 10 mg/kg orally): 37.52 ± 0.07 | body temperature, t = 90 min (rats; 10 mg/kg orally): 36.50 ± 0.06 | body temperature, t = 180 min (rats; 10 mg/kg orally): 36.60 ± 0.05 | body temperature, t = 270 min (rats; 10 mg/kg orally): 36.55 ± 0.08 | body temperature, t = 0 min (rats; 10 mg/kg transdermally): 37.58 ± 0.06 | body temperature, t = 90 min (rats; 10 mg/kg transdermally): 36.30 ± 0.06 | body temperature, t = 180 min (rats; 10 mg/kg transdermally): 36.35 ± 0.08 | body temperature, t = 270 min (rats; 10 mg/kg transdermally): 36.31 ± 0.07 | body temperature, t = 0 min (rats; 20 mg/kg orally): 37.54 ± 0.08 | body temperature, t = 90 min (rats; 20 mg/kg orally): 36.30 ± 0.05 | body temperature, t = 180 min (rats; 20 mg/kg orally): 36.35 ± 0.07 | body temperature, t = 270 min (rats; 20 mg/kg orally): 36.38 ± 0.08 | body temperature, t = 0 min (rats; 20 mg/kg transdermally): 37.59 ± 0.05 | body temperature, t = 90 min (rats; 20 mg/kg transdermally): 36.25 ± 0.05 | body temperature, t = 180 min (rats; 20 mg/kg transdermally): 36.30 ± 0.07 | body temperature, t = 270 min (rats; 20 mg/kg transdermally): 36.20 ± 0.05 | In vitro penetration rate (apparent flux), prodrug compounds (human skin tissue): 5000 μg/cm^2/h | Solubility of HPP ([2]; in water): >300 mg/mL | Solubility in water [2]: 400 mg/mL

CC(=O)O.CCN(CC)CCOC(=O)Cc1cc(C)c(C(=O)c2ccc(Cl)cc2)n1C [diethylaminoethyl 5-(4-Chlorobenzoyl)-1,4-dimethyl-1H-pyrrole-2-acetate.AcOH]
LD50 of HPP (rat; rat, in vivo): 200 mg/kg | Peak plasma concentration of parent compound after prodrug compound [1]: 20 mg/L | t, time to peak plasma level of parent compound after prodrug compound [1]: 50 min | % (rate of writhing inhibition) (mice; [4]): 55% | No. of Writhing (mice; [4]): 15.6 | lesions similar to psoriasis (Chinese white rabbits): the lesions were resolved | body temperature, t = 0 min (rats; 100 mg/kg transdermally): 37.21 ± 0.07 | body temperature, t = 90 min (rats; 100 mg/kg transdermally): 36.82 ± 0.06 | body temperature, t = 180 min (rats; 100 mg/kg transdermally): 36.70 ± 0.05 | body temperature, t = 270 min (rats; 100 mg/kg transdermally): 36.70 ± 0.08 | In vitro penetration rate (apparent flux), prodrug compounds (human skin tissue): 1200 μg/cm^2/h

CC(=O)O.CCN(CC)CCOC(=O)C(C)c1ccc2c(c1)[nH]c1ccc(Cl)cc12 (stereo not drawn) [diethylaminoethyl 6-chloro-α-methyl-9H-carbazole-2-acetate.AcOH]
LD50 of HPP (rat; rats): 700 mg/kg | Peak plasma concentration of parent compound after prodrug compound [1]: 2000 mg/L | t, time to peak plasma level of parent compound after prodrug compound [1]: 50 min | % (rate of writhing inhibition) (mice; [4]): 59% | No. of Writhing (mice; [4]): 14.2 | body temperature, t = 0 min (rats; 100 mg/kg transdermally): 37.28 ± 0.06 | body temperature, t = 90 min (rats; 100 mg/kg transdermally): 36.68 ± 0.05 | body temperature, t = 180 min (rats; 100 mg/kg transdermally): 36.62 ± 0.08 | body temperature, t = 270 min (rats; 100 mg/kg transdermally): 36.58 ± 0.07 | In vitro penetration rate (apparent flux), prodrug compounds (human skin tissue): 4000 μg/cm^2/h | Solubility of HPP ([2]; medium not given): >350 mg/mL | Solubility in water [2]: 400 mg/mL

CC(=O)O.CCN(CC)CCOC(=O)C(C)c1c(C)n(C(=O)c2ccc(Cl)cc2)c2ccc(OC)cc12 (stereo not drawn) [diethylaminoethyl α-methyl-(p-chlorobenzoyl)-5-methoxy-2-methylindole 3-acetate.AcOH]
Peak plasma concentration of parent compound after prodrug compound [1]: 2000 mg/L | t, time to peak plasma level of parent compound after prodrug compound [1]: 50 min | % (rate of writhing inhibition) (mice; [4]): 61% | No. of Writhing (mice; [4]): 13.8 | body temperature, t = 0 min (rats; 100 mg/kg transdermally): 37.35 ± 0.06 | body temperature, t = 90 min (rats; 100 mg/kg transdermally): 36.71 ± 0.05 | body temperature, t = 180 min (rats; 100 mg/kg transdermally): 36.60 ± 0.08 | body temperature, t = 270 min (rats; 100 mg/kg transdermally): 36.59 ± 0.07 | In vitro penetration rate (apparent flux), prodrug compounds (human skin tissue): 4000 μg/cm^2/h | Solubility of HPP ([2]; medium not given): >450 mg/mL
